Experimental data published in ChEMBL document CHEMBL5579852, “Promising anti-proliferative indolic benzenesulfonamides alter mechanisms with sulfonamide nitrogen substituents” (Eur J Med Chem, 2024).
The source made the active and inactive calls. No cut-off for these calls is given here.

Assays:
MES-SA [1] = test: Induction of apoptosis in human MES-SA cells assessed as increase in caspase 3/7 activation at 100 nM by live-cell imaging based fluorescence assay; format: functional; details: time 3.0 day, TDE = time-dependent effect
MES-SA [2] = test: Cell cycle distribution in human MES-SA cells assessed as accumulation of cells in G1 phase cells at 100 nM incubated for 24 hrs by Hoechst 33258 staining based flow cytometry (reference value: 60%); format: functional
[3] = Antiproliferative activity against human Hermes 3C cells assessed as reduction in cell viability incubated for 72 hrs by CelltiterGlo luminescent assay; format: toxicity, cell-based
MES-SA [4] = test: Induction of apoptosis in human MES-SA cells assessed as apoptotic cells at 100 nM incubated for 24 hrs by live/dead orange and TUNEL staining based flow cytometry analysis relative to control; format: functional
MES-SA [5] = test: Cell cycle distribution in human MES-SA cells assessed as accumulation of cells in G2/M phase cells at 100 nM incubated for 24 hrs by Hoechst 33258 staining based flow cytometry (reference value: 13.3 %); format: functional
BT-474 = test: Antiproliferative activity against human BT-474 cells assessed as reduction in cell viability incubated for 72 hrs by CelltiterGlo luminescent assay; details: BT-474, 72 h
MES-SA [6] = test: Antiproliferative activity against human MES-SA cells assessed as reduction in cell viability incubated for 72 hrs by CelltiterGlo luminescent assay
HeLa [7] = test: Antiproliferative activity against human HeLa cells assessed as inhibition of cell growth incubated for 72 hrs in absence of verapamil by MTT assay; format: functional, cell-based
MCF7 = test: Antiproliferative activity against human MCF7 cells assessed as reduction in cell viability incubated for 72 hrs by CelltiterGlo luminescent assay; format: functional, cell-based; details: MCF7, 72 h
[8] = Antiproliferative activity against human RPE-1 cells assessed as reduction in cell viability incubated for 72 hrs by CelltiterGlo luminescent assay; format: toxicity, cell-based; details: RPE-1 cells (TERT-RPE1)
[9] = Antiproliferative activity against human WM1366 cells assessed as reduction in cell viability incubated for 72 hrs by CelltiterGlo luminescent assay; details: WM1366, 72 h
MES-SA [10] = test: Cell cycle distribution in human MES-SA cells assessed as accumulation of cells in S phase cells at 100 nM incubated for 24 hrs by Hoechst 33258 staining based flow cytometry (reference value: 27 %); format: functional
HeLa [11] = test: Antiproliferative activity against human HeLa cells assessed as reduction in cell viability incubated for 72 hrs by CelltiterGlo luminescent assay; format: functional, cell-based
A-375 = test: Antiproliferative activity against human A-375 cells assessed as reduction in cell viability incubated for 72 hrs by CelltiterGlo luminescent assay; details: A-375, 72 h
MES-SA [12] = test: Cell cycle distribution in human MES-SA cells assessed as accumulation of cells in M phase cells at 100 nM incubated for 24 hrs by Hoechst 33258 staining based flow cytometry (reference value: 1.3 %); format: functional
MES-SA [13] = test: Induction of apoptosis in human MES-SA cells assessed as late apoptotic cells at 100 nM incubated for 24 hrs by live/dead orange and TUNEL staining based flow cytometry analysis relative to control; format: functional
HeLa [14] = test: Antiproliferative activity against human HeLa cells assessed as reduction in cell viability incubated for 72 hrs by MTT assay; format: functional, cell-based
MES-SA [15] = test: Cell cycle distribution in human MES-SA cells assessed as accumulation of cells in G2 phase cells at 100 nM incubated for 24 hrs by Hoechst 33258 staining based flow cytometry (reference value: 12 %); format: functional
[16] = Antiproliferative activity against human HEK293 cells assessed as reduction in cell viability incubated for 72 hrs by CelltiterGlo luminescent assay; format: toxicity, cell-based
cells = details: Homo sapiens, MDA-MB-468, 72 h
HT-1080 = test: Antiproliferative activity against human HT-1080 cells assessed as reduction in cell viability incubated for 72 hrs by CelltiterGlo luminescent assay; details: HT-1080, 72 h
MES-SA [17] = test: Induction of apoptosis in human MES-SA cells assessed as necrotic cells at 100 nM incubated for 24 hrs by live/dead orange and TUNEL staining based flow cytometry analysis relative to control; format: functional
CAKI-1 [18] = test: Antiproliferative activity against human CAKI-1 cells assessed as reduction in cell viability incubated for 72 hrs by CelltiterGlo luminescent assay
HeLa [19] = test: Antiproliferative activity against human HeLa cells assessed as inhibition of cell growth incubated for 72 hrs in presence of verapamil by MTT assay; format: functional, cell-based
Tubulin (Homo sapiens) = Tubulin (Homo sapiens) (UniProt P68371+Q9H4B7+P0DPH7+P68366+Q13509+Q71U36+P04350+Q3ZCM7+P07437+P68363+Q9BQE3+Q6PEY2+Q13885+Q9BVA1+Q9BUF5); test: Inhibition of tubulin polymerization in human MES-SA cells assessed as appearance of spherical shaped cells at 10 nM incubated for 24 hrs by DAPI staining based confocal microscopy analysis; format: cell-based
[20] = Antiproliferative activity against human Melmet 5 cells assessed as reduction in cell viability incubated for 72 hrs by CelltiterGlo luminescent assay; details: Melmet 5, 72 h
MES-SA [21] = test: Induction of apoptosis in human MES-SA cells assessed as live cells at 100 nM incubated for 24 hrs by live/dead orange and TUNEL staining based flow cytometry analysis relative to control; format: functional
MDA-MB-468 = test: cells; details: Homo sapiens, MDA-MB-468, 72 h
Description: Antiproliferative activity against human MDA-MB-468 cells assessed as reduction in cell viability incubated for 72 hrs by CelltiterGlo luminescent assay

CAKI-1 [22] = test: Antiproliferative activity against human CAKI-1 cells assessed as reduction in cell viability incubated for 72 hrs by CelltiterGlo luminescent assay; details: CAKI-1, 72 h
MES-SA [23] = test: Induction of apoptosis in human MES-SA cells assessed as dead cells at 100 nM incubated for 24 hrs by live/dead orange and TUNEL staining based flow cytometry analysis relative to control; format: functional
MES-SA [24] = test: Induction of apoptosis in human MES-SA cells assessed as caspase 3/7 activation at 1 uM incubated for 24 hrs by live-cell imaging based fluorescence assay; format: functional
MES-SA [25] = test: Induction of apoptosis in human MES-SA cells assessed as caspase 3/7 activation at 1 uM incubated for 48 to 72 hrs by live-cell imaging based fluorescence assay; format: functional; details: time lower […], time upper 72.0 hrs

SMILES	Activity (MES-SA [1])	Activity (MES-SA [2]) [%]	IC50 at 72 h [3] [nM]	Activity (MES-SA [4]) [%]	Activity (MES-SA [5]) [%]	IC50 (BT-474) [nM]	IC50 (MES-SA [6]) [nM]	IC50 (HeLa [7]) [nM]	IC50 (MCF7) [nM]	IC50 at 72 h [8] [nM]	IC50 [9] [nM]	Activity (MES-SA [10]) [%]	IC50 (HeLa [11]) [nM]	IC50 (A-375) [nM]	Activity (MES-SA [12]) [%]	Activity (MES-SA [13]) [%]	IC50 (HeLa [14]) [nM]	Activity (MES-SA [15]) [%]	IC50 at 72 h [16] [nM]	IC50 (cells) [nM]	further results
COc1cc(S(=O)(=O)N(C)c2ccc3c(c2)c(C#N)cn3C)cc(OC)c1OC	Tde	4	45.6	5	83.6	16.3	6.3	25.7	12.3	13.2	20.2	6	16	11.7	75.3	1.3	8	10	29	69.5	IC50 (HT-1080): 15.3 nM; Activity (MES-SA [17]): 2.3%; Activity (CAKI-1 [18]): inactive; IC50 (HeLa [19]): 24.6 nM; inhibition (Tubulin (Homo sapiens)): Active; IC50 [20]: 10.6 nM; Activity (MES-SA [21]): 91.4%; IC50 (MDA-MB-468): 28 nM
COc1cc(S(=O)(=O)N(C)c2ccc3c(ccn3C)c2)cc(OC)c1OC	Tde	4	67.4	5.7	83.6	34.5	9	50.1	15.8	20	13.5	6	14.5	17.5	75.3	0.9	3.2	10	12.3	67.6	IC50 (CAKI-1 [22]): 11 nM; IC50 (HT-1080): 11.8 nM; Activity (MES-SA [17]): 3.4%; IC50 (HeLa [19]): 40.9 nM; inhibition (Tubulin (Homo sapiens)): Active; IC50 [20]: 12.9 nM; Activity (MES-SA [21]): 90%; IC50 (MDA-MB-468): 24.4 nM
COc1cc(S(=O)(=O)Nc2ccc3c(c2)c(C#N)cn3C)cc(OC)c1OC	Tde	4	87.1	5.8	83.6	57.5	11.8	43	12.1	52.8	65.7	6	13.3	33.2	67.7	1.8	43	22	18.2	12.4	Activity (MES-SA [23]): 12%; IC50 (CAKI-1 [22]): 32.4 nM; IC50 (HT-1080): 12.1 nM; Activity (MES-SA [17]): 4.5%; IC50 (HeLa [19]): 29.1 nM; inhibition (Tubulin (Homo sapiens)): inactive; IC50 [20]: 1.6 nM; Activity (MES-SA [21]): 88%; IC50 (MDA-MB-468): 11.8 nM
COc1cc(S(=O)(=O)N(C)c2ccc3c(c2)c(C(N)=O)cn3C)cc(OC)c1OC	Tde	4	31.8	4.8	83.6	17.9	12.2	24.3	44	22.7	21.3	6	13.9	22.8	75.3	1.6	15	10	92.2	70.8	IC50 (CAKI-1 [22]): 29.6 nM; IC50 (HT-1080): 14.3 nM; Activity (MES-SA [17]): 1.8%; IC50 (HeLa [19]): 18.2 nM; inhibition (Tubulin (Homo sapiens)): Active; IC50 [20]: 12.2 nM; Activity (MES-SA [21]): 91.8%; IC50 (MDA-MB-468): 26 nM
COc1cc(S(=O)(=O)Nc2ccc3c(ccn3C)c2)cc(OC)c1OC	Tde	4	61	4.2	83.6	46.1	5.6	22.9	1.4	5.7	7.1	6	3.9	6.4	56.8	0.8	5.3	29	4.9	29.6	IC50 (CAKI-1 [22]): 4 nM; IC50 (HT-1080): 5.6 nM; Activity (MES-SA [17]): 4.7%; IC50 (HeLa [19]): 17.9 nM; inhibition (Tubulin (Homo sapiens)): inactive; IC50 [20]: 1.4 nM; Activity (MES-SA [21]): 90.3%; IC50 (MDA-MB-468): 4.5 nM
CN[C@@H]1C[C@H]2O[C@@](C)([C@@H]1OC)n1c3ccccc3c3c4c(c5c6ccccc6n2c5c31)C(=O)NC4																					Activity (MES-SA [24]): Active; Activity (MES-SA [25]): inactive
COc1cc(S(=O)(=O)N(CC#N)c2ccc3c(ccn3C)c2)cc(OC)c1OC	Tde	4	44.7	3.1	83.6	68.3	8.9	22.3	13.7	80.4	52.8	6	11	22.1	48.6	0.5	1.7	35	23.4	14.8	Activity (MES-SA [23]): 8%; IC50 (CAKI-1 [22]): 56.2 nM; IC50 (HT-1080): 9.9 nM; Activity (MES-SA [17]): 4.5%; IC50 (HeLa [19]): 16.3 nM; inhibition (Tubulin (Homo sapiens)): inactive; IC50 [20]: 8.9 nM; Activity (MES-SA [21]): 92%; IC50 (MDA-MB-468): 13 nM
